Source: patent publication US9926295B2, “Potent and selective inhibitors of hepatitis C virus” (Cocrystal Pharma, Inc., priority 2014, dated 2018)

Assays:
Format in all cases: cell-based
[1] = test system: HCV Replicon RNA (HCV 1b) in Huh 7 Clone B cells; test: HCV Replicon Assay; conditions: Hepatitis C virus, 120 h, five days incubation
Method: Huh 7 Clone B cells containing HCV Replicon RNA would be seeded in a 96-well plate at 5000 cells/well, and the compounds tested at 10 μM in triplicate immediately after seeding. Following five days incubation (37° C., 5% CO2), total cellular RNA was isolated by using versaGene RNA purification kit from Gentra. Replicon RNA and an internal control (TaqMan rRNA control reagents, Applied Biosystems) were amplified in a single step multiplex Real Time RT-PCR Assay. The antiviral effectiveness of the compounds was calculated by subtracting the threshold RT-PCR cycle of the test compound from the threshold RT-PCR cycle of the no-drug control (ΔCt HCV). A ΔCt of 3.3 equals a 1-log reduction (equal to 90% less starting material) in Replicon RNA levels. The cytotoxicity of the compounds was also calculated by using the ΔCt rRNA values. 2′-C-Me-C was used as the positive control. To determine EC90 and IC50 values^2, ΔCt: values were first converted into fraction of starting material^3 and then were used to calculate the % inhibition.
• 1. Stuyver L et al., Ribonucleoside analogue that blocks replication or bovine viral diarrhea and hepatitis C viruses in culture. Antimicrob. Agents Chemother. 2003, 47, 244-254. • 2. Reed I J & Muench H, A simple method or estimating fifty percent endpoints. Am. J. Hyg. 27: 497, 1938. • 3. Applied Biosystems Handbook Median Effective concentrations (EC50) ranges against HCV 1b are as follow: A=[…] B=100-999 nM C=1-99 nM D=<1 nM

[2] = Cellular toxicity assay in Vero cells; conditions: African green monkey, read-out: Cytotoxicity (IC50 μM) Vero
Method: (§1) The toxicity of the compounds was assessed in Vero, human PBM, CEM (human lymphoblastoid), MT-2, and HepG2 cells, as described previously (see Schinazi R. F., Sommadossi J.-P., Saalmann V., Cannon D. L., Xie M.-Y., Hart G. C., Smith G. A. & Hahn E. F. Antimicrob. Agents Chemother. 1990, 34, 1061-67). Cycloheximide was included as positive cytotoxic control, and untreated cells exposed to solvent were included as negative controls. The cytotoxicity IC50 was obtained from the concentration-response curve using the median effective method described previously (see Chou T.-C. & Talalay P. Adv. Enzyme Regul. 1984, 22, 27-55; Belen'kii M. S. & Schinazi R. F. Antiviral Res. 1994, 25, 1-11).

[3] = Cellular toxicity assay in CEM cells; conditions: human, CEM (human lymphoblastoid) cells, read-out: Cytotoxicity (IC50 μM) CEM
Method: as §1

[4] = Cellular toxicity assay in human PBM cells; conditions: read-out: Cytotoxicity (IC50 μM) PBM
Method: as §1

Structure (SMILES) | EC50 ([1]; pM) | EC90 ([1]; pM) | IC50 [2] | IC50 [3] | IC50 [4] | EC50 ([1]; values in nM) | EC90 ([1]; values in nM)
COC(=O)N[C@H](C(=O)N1CCCC1c1nc(Cl)c(-c2ccc(-c3ccc(-c4cnc([C@@H]5C[C@H](SC)CN5C(=O)[C@@H](NC(=O)OC)C(C)C)[nH]4)cc3)cc2)[nH]1)C(C)C (stereo partly drawn) [Compound 42] | 13.9 pM | 26.3 pM | 34.5 µM | 3.1 µM | 60 µM |  | 
COC(=O)N[C@H](C(=O)N1CCCC1c1nc(Cl)c(-c2ccc(-c3ccc(-c4cnc([C@@H]5C[C@H]([S+](C)[O-])CN5C(=O)[C@@H](NC(=O)OC)c5ccccc5)[nH]4)cc3)cc2)[nH]1)c1ccccc1 (stereo partly drawn) [Compound 44] |  |  | > 100 µM | 3.6 µM | 89.7 µM | 200 pM | 1100 pM
COC(=O)N[C@H](C(=O)N1CCCC1c1ncc(-c2ccc(-c3ccc(-c4[nH]c([C@@H]5C[C@H](SC)CN5C(=O)[C@@H](NC(=O)OC)C(C)C)nc4Cl)cc3)cc2)[nH]1)C(C)C (stereo partly drawn) [Compound 45] | 16.3 pM | 31.6 pM | 14.4 µM | 5.2 µM | 27.2 µM |  | 
COC(=O)N[C@H](C(=O)N1CCCC1c1ncc(-c2ccc(-c3ccc(-c4[nH]c([C@@H]5C[C@H]([S+](C)[O-])CN5C(=O)[C@@H](NC(=O)OC)C(C)C)nc4Cl)cc3)cc2)[nH]1)C(C)C (stereo partly drawn) [Compound 46] |  |  | 45.8 µM | 3.7 µM | 13.6 µM | 60 pM | 300 pM
COC(=O)N[C@H](C(=O)N1CCCC1c1ncc(-c2ccc(-c3ccc(-c4[nH]c([C@@H]5C[C@H](SC)CN5C(=O)[C@@H](NC(=O)OC)c5ccccc5)nc4Cl)cc3)cc2)[nH]1)c1ccccc1 (stereo partly drawn) [Compound 47] | 4 pM | 23.1 pM | > 100 µM | > 100 µM | > 100 µM |  | 
COC(=O)N[C@H](C(=O)N1CCCC1c1ncc(-c2ccc(-c3ccc(-c4[nH]c([C@@H]5C[C@H]([S+](C)[O-])CN5C(=O)[C@@H](NC(=O)OC)c5ccccc5)nc4Cl)cc3)cc2)[nH]1)c1ccccc1 (stereo partly drawn) [Compound 48] |  |  | > 100 µM | 1.8 µM | 67.6 µM | 70 pM | 500 pM
COC(=O)N[C@H](C(=O)N1CCCC1c1nc(Cl)c(-c2ccc(-c3ccc(-c4[nH]c([C@@H]5C[C@H](SC)CN5C(=O)[C@@H](NC(=O)OC)C(C)C)nc4Cl)cc3)cc2)[nH]1)C(C)C (stereo partly drawn) [Compound 49] | 3.4 pM | 69.9 pM | > 100 µM | 2.5 µM | 24.3 µM |  | 
COC(=O)N[C@H](C(=O)N1CCCC1c1nc(Cl)c(-c2ccc(-c3ccc(-c4[nH]c([C@@H]5C[C@H](SC)CN5C(=O)[C@@H](NC(=O)OC)c5ccccc5)nc4Cl)cc3)cc2)[nH]1)c1ccccc1 (stereo partly drawn) [Compound 51] | 7.7 pM | 19.1 pM | > 100 µM | > 100 µM | > 100 µM |  | 
COC(=O)N[C@H](C(=O)N1CCCC1c1nc(Cl)c(-c2ccc(-c3ccc(-c4[nH]c([C@@H]5C[C@H]([S+](C)[O-])CN5C(=O)[C@@H](NC(=O)OC)c5ccccc5)nc4Cl)cc3)cc2)[nH]1)c1ccccc1 (stereo partly drawn) [Compound 52] |  |  | > 100 µM | 7.1 µM | 83.9 µM | 60 pM | 200 pM
